Several values for one entry are separate records, joined by “and”; a condition that tells them apart may be missing. Equal entries are not always repeated.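 Cultured in 96-well plates, cells were exposed to test compound for 48 hours across five concentrations. At the GI50, growth is halved. At the TGI there is no net growth.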
Legend:
Assay in all cases: DTP human tumour cell line panel, 48 h
[1] = tested on: OVCAR-5 ovarian
[2] = tested on: BT-549 breast
[3] = tested on: NCI-H522 lung
[4] = tested on: MALME-3M melanoma
[5] = tested on: SR leukemia
[6] = tested on: CCRF-CEM leukemia
[7] = tested on: T-47D breast
[8] = tested on: SF-268 CNS
[9] = tested on: IGROV1 ovarian
[10] = tested on: MDA-MB-435
[11] = tested on: MDA-N
[12] = tested on: SNB-19 CNS
[13] = tested on: UACC-257 melanoma
[14] = tested on: TK-10 renal
[15] = tested on: CAKI-1 renal
[16] = tested on: RPMI-8226 leukemia
[17] = tested on: EKVX NSCLC
[18] = tested on: MOLT-4 leukemia
[19] = tested on: M14 melanoma
[20] = tested on: SK-MEL-28 melanoma
[21] = tested on: UO-31 renal
[22] = tested on: UACC-62 melanoma
[23] = tested on: 786-0 renal
[24] = tested on: HOP-92 NSCLC
[25] = tested on: HCC-2998 colon
[26] = tested on: NCI-H460 lung
[27] = tested on: HCT-116 colon
[28] = tested on: MDA-MB-231 breast
[29] = tested on: A498 renal
[30] = tested on: RXF 393 renal
[31] = tested on: HL-60(TB) leukemia
[32] = tested on: SN12C renal
[33] = tested on: SK-OV-3 ovarian
[34] = tested on: COLO 205 colon
[35] = tested on: HCT-15 colon
[36] = tested on: NCI/ADR-RES ovarian
[37] = tested on: SK-MEL-5 melanoma
[38] = tested on: HS 578T breast
[39] = tested on: SNB-75 CNS
[40] = tested on: SK-MEL-2 melanoma
[41] = tested on: SF-539 CNS
[42] = tested on: LOX IMVI melanoma
[43] = tested on: KM12 colon
[44] = tested on: OVCAR-4 ovarian
[45] = tested on: U251 CNS
[46] = tested on: SF-295 CNS
[47] = tested on: HT29 colon
[48] = tested on: K-562 leukemia
[49] = tested on: A549 NSCLC
[50] = tested on: OVCAR-3 ovarian
[51] = tested on: HOP-62 NSCLC
[52] = tested on: NCI-H226 lung
[53] = tested on: SW-620 colon
[54] = tested on: DU-145 prostate
[55] = tested on: MCF7 breast
[56] = tested on: ACHN renal
[57] = tested on: OVCAR-8 ovarian
[58] = tested on: NCI-H23 lung
[59] = tested on: PC-3 prostate
[60] = tested on: M19-MEL melanoma
[61] = tested on: KM20L2 colon
[62] = tested on: DMS 273 small cell lung
[63] = tested on: DMS 114 small cell lung
[64] = tested on: DLD-1 colon
[65] = tested on: SNB-78 CNS
[66] = tested on: LXFL 529 NSCLC

## C=CCN(/C=C1\C(=O)O[C@H](COC)[C@@]2(C)C1=C(O)C(=O)C1=C2[C@H](OC(C)=O)C[C@]2(C)C(=O)CC[C@@H]12)CC=C
[1]
  GI50: 2.34 µM and 0.737 µM
  TGI: 20 µM and 76.4 µM
[2]
  TGI: 20 µM and 3.68 µM
[3]
  GI50: 6.46 µM and 2.87 µM
  TGI: 20 µM and 22.2 µM
[4]
  TGI: 5.5 µM and 8.3 µM
[5]
  GI50: 0.86 µM and 0.644 µM
  TGI: 20 µM and 8.02 µM
[6]
  GI50: 11.1 µM and 1.41 µM
  TGI: 20 µM and > 100 µM
[7]
  TGI: 20 µM and > 100 µM
[8]
  GI50: 0.992 µM and 1.46 µM
  TGI: 20 µM and > 100 µM
[9]
  GI50: 0.145 µM and 0.206 µM
[10]
  GI50: 1.29 µM and 3.63 µM
  TGI: 13.5 µM and 46.9 µM
[11]
  GI50: 5.91 µM
  TGI: 20 µM
[12]
  GI50: 5.92 µM and 1.1 µM
  TGI: 20 µM and 92.9 µM
[13]
  GI50: 9.18 µM and 2.26 µM
  TGI: 20 µM and > 100 µM
[14]
  GI50: 0.128 µM and 0.437 µM
[15]
  GI50: 0.188 µM and 0.2 µM
  TGI: 20 µM and 10.1 µM
[16]
  GI50: 7.91 µM and 1.42 µM
  TGI: 20 µM and 14.1 µM
[17]
  GI50: 0.474 µM and 0.0779 µM
  TGI: 10.4 µM and 1.67 µM
[18]
  GI50: 1.58 µM and 0.813 µM
  TGI: 20 µM and 17.1 µM
[19]
  GI50: 2.98 µM
  TGI: > 100 µM
[20]
  GI50: 0.838 µM
  TGI: 49.1 µM
[21]
  GI50: 1.51 µM and 0.331 µM
  TGI: 20 µM and > 100 µM
[22]
  GI50: 0.11 µM and 0.075 µM
  TGI: 1.38 µM and 2.38 µM
[23]
  TGI: 20 µM and 25.7 µM
[24]
  TGI: 20 µM and 4.4 µM
[25]
  GI50: 0.487 µM and 0.207 µM
  TGI: 8.12 µM and 4.94 µM
[26]
  GI50: 0.278 µM and 0.374 µM
  TGI: 20 µM and > 100 µM
[27]
  GI50: 3.91 µM and 1.76 µM
  TGI: 20 µM and > 100 µM
[28]
  GI50: 13.2 µM and 3.32 µM
  TGI: 20 µM and > 100 µM
[29]
  GI50: 0.0671 µM and 0.049 µM
  TGI: 2.73 µM and 1.26 µM
[30]
  GI50: 0.00922 µM and 0.0149 µM
  TGI: 0.261 µM and 0.196 µM
[31]
  GI50: 0.21 µM and 0.439 µM
  TGI: 7.46 µM and 11.2 µM
[32]
  GI50: 1.99 µM and 1.07 µM
  TGI: 20 µM and > 100 µM
[33]
  GI50: 3.38 µM and 0.596 µM
  TGI: 20 µM and 19.8 µM
[34]
  GI50: 5.04 µM and 1.94 µM
  TGI: 20 µM and 26.3 µM
[35]
  GI50: 2.62 µM and 0.787 µM
  TGI: 20 µM and > 100 µM
[36]
  GI50: 5.76 µM and 2.34 µM
  TGI: 20 µM and > 100 µM
[37]
  GI50: 3.22 µM and 2.18 µM
  TGI: 20 µM and 11.6 µM
[38]
  GI50: 0.173 µM and 0.025 µM
[39]
  GI50: 0.291 µM and 0.0327 µM
[40]
  GI50: 3.67 µM and 1.48 µM
  TGI: 20 µM and 8.33 µM
[41]
  GI50: 3.6 µM and 0.524 µM
  TGI: 20 µM and 6.41 µM
[42]
  GI50: 0.547 µM and 1.89 µM
  TGI: 20 µM and 21.4 µM
[43]
  GI50: 0.979 µM and 2.19 µM
  TGI: 20 µM and 46.4 µM
[44]
  GI50: 2.97 µM and 2.58 µM
  TGI: 20 µM and > 100 µM
[45]
  GI50: 1.6 µM and 3.35 µM
  TGI: 20 µM and > 100 µM
[46]
  GI50: 0.0935 µM and 0.205 µM
  TGI: 4.82 µM and 9.89 µM
[47]
  GI50: 0.101 µM and 0.558 µM
  TGI: 20 µM and > 100 µM
[48]
  GI50: 15.1 µM and 12 µM
  TGI: 20 µM and > 100 µM
[49]
  GI50: 0.151 µM and 0.361 µM
[50]
  TGI: 20 µM and 4.16 µM
[51]
  TGI: 20 µM and 71.3 µM
[52]
  GI50: 0.364 µM and 1.16 µM
[53]
  GI50: 6.16 µM and 2.09 µM
  TGI: 20 µM and > 100 µM
[54]
  GI50: 11.2 µM and 1.27 µM
  TGI: 20 µM and > 100 µM
[55]
  GI50: 0.186 µM and 0.257 µM
  TGI: 5.95 µM and 22.8 µM
[56]
  GI50: 2.74 µM and 0.449 µM
  TGI: 20 µM and > 100 µM
[57]
  GI50: 10.2 µM and 3.09 µM
  TGI: 20 µM and > 100 µM
[58]
  GI50: 8.94 µM and 2.69 µM
  TGI: 20 µM and > 100 µM
[59]
  TGI: > 100 µM

## O=C1CN2C(Cl)(Cl)C2(c2ccccc2)c2cc(Cl)ccc2N1CC(F)(F)F (stereo not given)
[1]
  TGI: > 100 µM
[3]
  TGI: 42.7 µM
[60]
  TGI: > 100 µM
[4]
  TGI: 87 µM
[5]
  TGI: 69.9 µM
[6]
  TGI: 42.3 µM
[8]
  TGI: > 100 µM
[61]
  TGI: > 100 µM
[9]
  TGI: 73.7 µM
[13]
  TGI: 51.9 µM
[14]
  TGI: > 100 µM
[15]
  TGI: > 100 µM
[16]
  TGI: 78.5 µM
[17]
  TGI: > 100 µM
[18]
  TGI: 55.8 µM
[62]
  TGI: 72.7 µM
[19]
  TGI: 77.5 µM
[20]
  TGI: 61 µM
[21]
  TGI: > 100 µM
[22]
  TGI: > 100 µM
[24]
  TGI: 41.1 µM
[25]
  TGI: 35.9 µM
[26]
  TGI: 35.9 µM
[27]
  TGI: 49.3 µM
[30]
  TGI: 63.6 µM
[32]
  TGI: 30.6 µM
[33]
  TGI: > 100 µM
[34]
  TGI: 39.3 µM
[35]
  TGI: 81.6 µM
[37]
  TGI: 33.2 µM
[39]
  TGI: 51.2 µM
[40]
  TGI: 54.9 µM
[42]
  TGI: 39 µM
[43]
  TGI: 42.2 µM
[44]
  TGI: 43.7 µM
[45]
  TGI: 37.8 µM
[46]
  TGI: > 100 µM
[47]
  TGI: 48.1 µM
[48]
  TGI: 72.1 µM
[63]
  TGI: 66.6 µM
[50]
  TGI: 39 µM
[51]
  TGI: 60.7 µM
[52]
  TGI: 67 µM
[53]
  TGI: > 100 µM
[56]
  TGI: > 100 µM
[57]
  TGI: > 100 µM
[58]
  TGI: 70.1 µM
[64]
  TGI: 42.9 µM

## CCOc1ccc(N=Nc2ccc3oc(=O)c(C(=O)Nc4ccc(OC)cc4)cc3c2)cc1
[1]
  TGI: > 100 µM
[3]
  TGI: 87.8 µM
[60]
  TGI: 91.7 µM
[4]
  TGI: > 100 µM
[6]
  TGI: 25.4 µM
[8]
  TGI: 78.4 µM
[61]
  TGI: > 100 µM
[9]
  TGI: > 100 µM
[12]
  TGI: 46.6 µM
[13]
  TGI: > 100 µM
[14]
  TGI: > 100 µM
[15]
  TGI: > 100 µM
[16]
  TGI: > 100 µM
[17]
  TGI: 86.7 µM
[18]
  TGI: 44.4 µM
[62]
  TGI: > 100 µM
[20]
  TGI: 68 µM
[21]
  TGI: 78 µM
[22]
  TGI: 93.1 µM
[23]
  TGI: 93.9 µM
[25]
  TGI: 36.8 µM
[27]
  TGI: 26.2 µM
[29]
  TGI: > 100 µM
[31]
  TGI: 20.4 µM
[32]
  TGI: > 100 µM
[33]
  TGI: 84.8 µM
[34]
  TGI: > 100 µM
[65]
  TGI: 82.8 µM
[35]
  TGI: > 100 µM
[37]
  TGI: 38.8 µM
[39]
  TGI: 93.7 µM
[40]
  TGI: 54.4 µM
[41]
  TGI: 51 µM
[42]
  TGI: 55.6 µM
[43]
  TGI: > 100 µM
[44]
  TGI: 52.9 µM
[45]
  TGI: 61.1 µM
[46]
  TGI: > 100 µM
[47]
  TGI: > 100 µM
[48]
  TGI: > 100 µM
[49]
  TGI: > 100 µM
[50]
  TGI: 67 µM
[66]
  TGI: > 100 µM
[51]
  TGI: 63.6 µM
[53]
  TGI: > 100 µM
[57]
  TGI: 67.6 µM
[58]
  TGI: 56.9 µM
[64]
  TGI: 61.4 µM
